Data: patent US20050244891A1, “Ligand-containing micelles and uses thereof” (Applera Corporation, priority 2003, published 2005)
The star is where a group is joined. K(dye2) = lysine labeled with dye2 = 5-carboxy-2′,7′-dipyridyl-sulfonefluorescein; K(tet) = lysine labeled with tet = 2′,7′,4,7-tetrachloro-5-carboxy fluorescein; Heptadecanoyl = CCCCCCCCCCCCCCCCC(=O)*; Pentadecanoyl = CCCCCCCCCCCCCCC(=O)*; Palmitoyl = CCCCCCCCCCCCCCCC(=O)*; Tridecanoyl = CCCCCCCCCCCCC(=O)*; AEEA = NCCOCCOCC(=O)O

Tests used:
[1] = test system: PKA; assay: Fluorescence of micelle with signal molecule upon treatment with protein kinase (Table 19); assay type: biochemical; details: Conc 8 uM; for RFUs at 10 uL (final): after kinase; for RFUs at 10 uL (initial): before kinase
Description: (§1) Table 19 also provides the specific protein kinase that can be used to modify each of these signal molecules, as well as the fluorescence observed with a micelle comprising the signal molecules upon treatment with the specified protein kinase.

[2] = test system: PKC; assay: as above; assay type: biochemical; details: for RFUs at 10 uL (final): after kinase; for RFUs at 10 uL (initial): before kinase
Description: as §1

[3] = normalized: phenylalanine 100, glycine 0; cited from earlier work
[4] = cited from earlier work
[5] = test system: MAPK; assay: Fluorescence of micelle with signal molecule upon treatment with protein kinase (Table 19); assay type: biochemical; details: Conc 16 uM
Description: as §1

[6] = test system: Akt; assay: as above; assay type: biochemical; details: Conc 8 uM
Description: as §1

[7] = test system: Src, lyn, fyn; assay: as above; assay type: biochemical; details: Conc 8 uM
Description: as §1

[8] = molecular target: MAPKAP2 (Homo sapiens, UniProt P49137); assay: as above; assay type: biochemical; details: Conc 8 uM
Sequence of MAPKAP2 (P49137 whole entry): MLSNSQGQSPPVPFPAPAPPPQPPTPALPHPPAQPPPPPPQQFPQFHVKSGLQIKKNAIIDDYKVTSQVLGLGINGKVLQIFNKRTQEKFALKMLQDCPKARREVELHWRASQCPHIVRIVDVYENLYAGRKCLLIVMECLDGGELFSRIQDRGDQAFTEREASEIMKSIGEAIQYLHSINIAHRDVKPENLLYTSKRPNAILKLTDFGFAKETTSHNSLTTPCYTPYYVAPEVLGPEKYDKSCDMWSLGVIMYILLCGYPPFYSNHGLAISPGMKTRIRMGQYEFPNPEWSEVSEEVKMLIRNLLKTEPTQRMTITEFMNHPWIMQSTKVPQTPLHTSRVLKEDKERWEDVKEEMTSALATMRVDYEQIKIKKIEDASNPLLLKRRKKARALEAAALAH
Description: as §1

C13-K(dye2)-LRRASLG-NH2: peptide-dye signal molecule for PKA; dye2 = 5-carboxy-2′,7′-dipyridyl-sulfonefluorescein, C-terminus amidated ({Tridecanoyl-K(dye2)}-LRRASLG-NH2)
Fold increase [1]: 5x
RFUs at 10 uL (final) [1]: 5000 RFU
RFUs at 10 uL (initial) [1]: 1000 RFU

C17-OOOK(tet)-RQGSFRA-NH2: peptide-dye signal molecule for PKC; tet = 2′,7′,4,7-tetachloro-5-carboxy fluorescein ({Heptadecanoyl-AEEA-AEEA-AEEA-K(tet)}-RQGSFRA-NH2)
Fold increase ([2]; Conc 6 uM): 7x
RFUs at 10 uL (final) ([2]; Conc 6 uM): 4900 RFU
RFUs at 10 uL (initial) ([2]; Conc 6 uM): 700 RFU

O=C(O)[C@@H]1CCCN1 [Proline (P), Proline]
Monera et al. Hydrophobicity (pH 2) [3]: −46

N[C@@H](CO)C(=O)O [Serine (S), Serine]
Side chain pKa [4]: ˜13

C16-OOOK(dye2)-RREGSFR-NH2: peptide-dye signal molecule for PKC; O = 2-aminoethoxy-2-ethoxyacetyl linker, dye2 = 5-carboxy-2′,7′-dipyridyl-sulfonefluorescein ({Palmitoyl-AEEA-AEEA-AEEA-K(dye2)}-RREGSFR-NH2)
Fold increase ([2]; Conc 4 uM): 4.5x
RFUs at 10 uL (final) ([2]; Conc 4 uM): 3000 RFU
RFUs at 10 uL (initial) ([2]; Conc 4 uM): 650 RFU

C17-OOOK(dye2)PRTPGGR-NH2: peptide-dye signal molecule for MAPK; dye2 = 5-carboxy-2′,7′-dipyridyl-sulfonefluorescein ({Heptadecanoyl-AEEA-AEEA-AEEA-K(dye2)}-PRTPGGR-NH2)
Fold increase [5]: 5x
RFUs at 10 uL (final) ([5]; after kinase): 5700 RFU
RFUs at 10 uL (initial) ([5]; before kinase): 1100 RFU

C15-OOOK(dye2)RPRTSSF-NH2: peptide-dye signal molecule for Akt; dye2 = 5-carboxy-2′,7′-dipyridyl-sulfonefluorescein ({Pentadecanoyl-AEEA-AEEA-AEEA-K(dye2)}-RPRTSSF-NH2)
Fold increase [6]: 4x
RFUs at 10 uL (final) ([6]; after kinase): 7500 RFU
RFUs at 10 uL (initial) ([6]; before kinase): 1500 RFU

C16-OOOK(dye2)RIGEGTYGVVRR-NH2: peptide-dye signal molecule for Src, lyn, fyn; dye2 = 5-carboxy-2′,7′-dipyridyl-sulfonefluorescein ({Palmitoyl-AEEA-AEEA-AEEA-K(dye2)}-RIGEGTYGVVRR-NH2)
Fold increase [7]: 6.5x
RFUs at 10 uL (final) ([7]; after kinase): 6500 RFU
RFUs at 10 uL (initial) ([7]; before kinase): 1000 RFU

C16-OOOK(dye2)RLNRTLSV-NH2: peptide-dye signal molecule for MAPKAP2; dye2 = 5-carboxy-2′,7′-dipyridyl-sulfonefluorescein ({Palmitoyl-AEEA-AEEA-AEEA-K(dye2)}-RLNRTLSV-NH2)
Fold increase [8]: 4x
RFUs at 10 uL (final) ([8]; after kinase): 3200 RFU
RFUs at 10 uL (initial) ([8]; before kinase): 800 RFU

C13-OOOK(dye2)-LRRASLG-NH2: peptide-dye signal molecule for PKA; O = 2-aminoethoxy-2-ethoxyacetyl linker, dye2 = 5-carboxy-2′,7′-dipyridyl-sulfonefluorescein ({Tridecanoyl-AEEA-AEEA-AEEA-K(dye2)}-LRRASLG-NH2)
Fold increase [1]: 5x
RFUs at 10 uL (final) [1]: 5000 RFU
RFUs at 10 uL (initial) [1]: 1000 RFU

C[C@@H](O)[C@H](N)C(=O)O [Threonine (T), Threonine]
Side chain pKa [4]: ˜13
